Usually IC50 stands for the concentration at which inhibition is half-maximal.

SMILES strings stand for the structures.

The test deals with Human complement C1s enzyme (Homo sapiens (Human), UniProt P09871). As to the kind of experiment: Human C1s enzyme assay. The settings on record: Human C1s enzyme assay of Example 3; read-out: IC50 (Stars). It counts as biochemical. The procedure, abridged: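 Purified serum-derived human C1s (1.16 nM final) preincubated 5 min at room temperature with compound in 50 mM Tris, 1 M NaCl, pH 7.5. Z-L-Lys-SBzl thioester substrate and DTNB added (100 μM each, final); A405 read every 30 s for 30 min. IC50 from nonlinear regression of reaction rates against compound concentration.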
Chain of Human complement C1s enzyme (P09871 438-688 limits assumed): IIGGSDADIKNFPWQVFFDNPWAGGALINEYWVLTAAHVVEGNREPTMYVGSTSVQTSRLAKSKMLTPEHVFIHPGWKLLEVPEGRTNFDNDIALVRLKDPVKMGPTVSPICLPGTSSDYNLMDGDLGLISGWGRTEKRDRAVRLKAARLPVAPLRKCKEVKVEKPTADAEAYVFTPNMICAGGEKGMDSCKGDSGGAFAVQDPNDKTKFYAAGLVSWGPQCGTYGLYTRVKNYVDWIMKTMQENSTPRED
Chain of Human complement C1s enzyme (P09871 16-437 partner limits assumed): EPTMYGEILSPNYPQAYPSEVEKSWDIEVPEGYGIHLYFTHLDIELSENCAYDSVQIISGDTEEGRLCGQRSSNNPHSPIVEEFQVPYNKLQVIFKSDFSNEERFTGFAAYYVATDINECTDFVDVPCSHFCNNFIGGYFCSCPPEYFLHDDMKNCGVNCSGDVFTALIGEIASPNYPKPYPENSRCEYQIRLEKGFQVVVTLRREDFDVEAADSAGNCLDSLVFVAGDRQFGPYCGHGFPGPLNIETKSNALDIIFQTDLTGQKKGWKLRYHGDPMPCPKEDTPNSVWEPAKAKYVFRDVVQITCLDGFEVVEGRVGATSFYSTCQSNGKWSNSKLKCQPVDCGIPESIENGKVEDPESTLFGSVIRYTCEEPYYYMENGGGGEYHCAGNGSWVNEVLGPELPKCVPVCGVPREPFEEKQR
As to `C[C@@H](NC(=O)[C@@H]1C[C@H](c2nccs2)CN1C(=O)CNC(=O)c1ccc(Oc2ccc(F)cc2)cc1)c1cc(C(=N)N)cs1` [Compound 171, (2S,4S)—N—((R)-1-(4-carbamimidoylthiophen-2-yl)ethyl)-1-((4-(4-fluorophenoxy)benzoyl)glycyl)-4-(thiazol-2-yl)pyrrolidine-2-carboxamide], the IC50 is below 100 nM. `C[C@@H](NC(=O)[C@@H]1C[C@H](c2nccs2)CN1C(=O)CNC(=O)c1ccc2c(c1)-c1ccccc1C2(F)F)c1cc(C(=N)N)cs1` [Compound 172, (2S,4S)—N—((R)-1-(4-carbamimidoylthiophen-2-yl)ethyl)-1-((9,9-difluoro-9H-fluorene-3-carbonyl)glycyl)-4-(thiazol-2-yl)pyrrolidine-2-carboxamide]: the IC50 is below 100 nM. Turning to `Cc1cnc(-c2ccc(C(=O)NCC(=O)N3CC4(C[C@H]3C(=O)N[C@H](C)c3cc(C(=N)N)cs3)OCCO4)cc2)c(C)c1` [Compound 173, (S)—N—((R)-1-(4-carbamimidoylthiophen-2-yl)ethyl)-7-((4-(3,5-dimethylpyridin-2-yl)benzoyl)glycyl)-1,4-dioxa-7-azaspiro[4.4]nonane-8-carboxamide], the half-inhibitory concentration (IC50) is below 100 nM. On to `C[C@@H](NC(=O)[C@@H]1CC2(CN1C(=O)CNC(=O)c1ccc(-c3ccc(Cl)cc3F)cc1)OCCO2)c1cc(C(=N)N)cs1` [Compound 174, (S)—N—((R)-1-(4-carbamimidoylthiophen-2-yl)ethyl)-7-((4′-chloro-2′-fluoro-[1,1′-biphenyl]-4-carbonyl)glycyl)-1,4-dioxa-7-azaspiro[4.4]nonane-8-carboxamide], for which the IC50 was below 100 nM. The result for `C[C@@H](NC(=O)[C@@H]1CC2(CN1C(=O)CNC(=O)c1ccc(-c3ccc(F)cc3)c(F)c1)OCCO2)c1cc(C(=N)N)cs1` [Compound 175, (S)—N—((R)-1-(4-carbamimidoylthiophen-2-yl)ethyl)-7-((2,4′-difluoro-[1,1′-biphenyl]-4-carbonyl)glycyl)-1,4-dioxa-7-azaspiro[4.4]nonane-8-carboxamide] reads below 100 nM; that for `C[C@@H](NC(=O)[C@@H]1CC2(CN1C(=O)CNC(=O)c1ccc(-c3ccc(F)cc3Cl)cc1)OCCO2)c1cc(C(=N)N)cs1` [Compound 176, (S)—N—((R)-1-(4-carbamimidoylthiophen-2-yl)ethyl)-7-((2′-chloro-4′-fluoro-[1,1′-biphenyl]-4-carbonyl)glycyl)-1,4-dioxa-7-azaspiro[4.4]nonane-8-carboxamide], below 100 nM.

Consider `Cc1cccc2c1-c1cc(C(=O)NCC(=O)N3CC4(C[C@H]3C(=O)N[C@H](C)c3cc(C(=N)N)cs3)OCCO4)ccc1C2(F)F` [Compound 177, (S)—N—((R)-1-(4-carbamimidoylthiophen-2-yl)ethyl)-7-((9,9-difluoro-5-methyl-9H-fluorene-3-carbonyl)glycyl)-1,4-dioxa-7-azaspiro[4.4]nonane-8-carboxamide], for which the IC50 is below 100 nM. On to `C[C@@H](NC(=O)[C@@H]1C[C@@H](S(C)(=O)=O)CN1C(=O)CNC(=O)c1ccc2c(c1)-c1ccccc1C2(C)C)c1cc(C(=N)N)cs1` [Compound 178, (2S,4R)—N—((R)-1-(4-carbamimidoylthiophen-2-yl)ethyl)-1-((9,9-dimethyl-9H-fluorene-3-carbonyl)glycyl)-4-(methylsulfonyl)pyrrolidine-2-carboxamide], for which the IC50 is below 100 nM.

With `Cc1cc(C(=O)NCC(=O)N2CC3(C[C@H]2C(=O)N[C@H](C)c2cc(C(=N)N)cs2)OCCO3)cc2c1C(F)(F)c1ccccc1-2` [Compound 179, (S)—N—((R)-1-(4-carbamimidoylthiophen-2-yl)ethyl)-7-((9,9-difluoro-1-methyl-9H-fluorene-3-carbonyl)glycyl)-1,4-dioxa-7-azaspiro[4.4]nonane-8-carboxamide], the IC50 is below 100 nM.

As to `Cc1ccc2c(c1)-c1cc(C(=O)NCC(=O)N3CC4(C[C@H]3C(=O)N[C@H](C)c3cc(C(=N)N)cs3)OCCO4)ccc1C2(F)F` [Compound 180, (S)—N—((R)-1-(4-carbamimidoylthiophen-2-yl)ethyl)-7-((9,9-difluoro-6-methyl-9H-fluorene-3-carbonyl)glycyl)-1,4-dioxa-7-azaspiro[4.4]nonane-8-carboxamide], the half-inhibitory concentration (IC50) was below 100 nM. Take `C[C@@H](NC(=O)[C@@H]1CC2(CN1C(=O)CNC(=O)c1cc(F)c(-c3ccc(F)cc3)cn1)OCCO2)c1cc(C(=N)N)cs1` [Compound 181, (S)—N—((R)-1-(4-carbamimidoylthiophen-2-yl)ethyl)-7-((4-fluoro-5-(4-fluorophenyl)picolinoyl)glycyl)-1,4-dioxa-7-azaspiro[4.4]nonane-8-carboxamide]: the IC50 is below 100 nM. Consider `Cc1cccc2c1C(F)(F)c1ccc(C(=O)NCC(=O)N3CC4(C[C@H]3C(=O)N[C@H](C)c3cc(C(=N)N)cs3)OCCO4)cc1-2` [Compound 182, (S)—N—((R)-1-(4-carbamimidoylthiophen-2-yl)ethyl)-7-((9,9-difluoro-8-methyl-9H-fluorene-3-carbonyl)glycyl)-1,4-dioxa-7-azaspiro[4.4]nonane-8-carboxamide], for which the IC50 is below 100 nM.

As to `CS(=O)(=O)c1ccc(-c2ccc(C(=O)NCC(=O)N3CC4(C[C@H]3C(=O)NCc3cc(C(=N)N)cs3)OCCO4)cc2)cc1` [Compound 183, (S)—N-((4-carbamimidoylthiophen-2-yl)methyl)-7-((4′-(methylsulfonyl)-[1,1′-biphenyl]-4-carbonyl)glycyl)-1,4-dioxa-7-azaspiro[4.4]nonane-8-carboxamide], the IC50 was below 100 nM. With `Nc1csc(-c2csc(CNC(=O)[C@@H]3CC4(CN3C(=O)CNC(=O)c3ccc(Oc5ccc(F)cc5)cc3)OCCO4)c2)n1` [Compound 184, (S)—N-((4-(4-aminothiazol-2-yl)thiophen-2-yl)methyl)-7-((4-(4-fluorophenoxy)benzoyl)glycyl)-1,4-dioxa-7-azaspiro[4.4]nonane-8-carboxamide], the IC50 is above 1000 nM.

Regarding `Nc1cnc(-c2csc(CNC(=O)[C@@H]3CC4(CN3C(=O)CNC(=O)c3ccc(Oc5ccc(F)cc5)cc3)OCCO4)c2)s1` [Compound 185, (S)—N-((4-(5-aminothiazol-2-yl)thiophen-2-yl)methyl)-7-((4-(4-fluorophenoxy)benzoyl)glycyl)-1,4-dioxa-7-azaspiro[4.4]nonane-8-carboxamide], the IC50 is below 100 nM. Take `Nc1nc(-c2csc(CNC(=O)[C@@H]3CC4(CN3C(=O)CNC(=O)c3ccc(Oc5ccc(F)cc5)cc3)OCCO4)c2)cs1` [Compound 186, (S)—N-((4-(2-aminothiazol-4-yl)thiophen-2-yl)methyl)-7-((4-(4-fluorophenoxy)benzoyl)glycyl)-1,4-dioxa-7-azaspiro[4.4]nonane-8-carboxamide]: the IC50 was above 1000 nM.

With `Nc1ncc(-c2csc(CNC(=O)[C@@H]3CC4(CN3C(=O)CNC(=O)c3ccc(Oc5ccc(F)cc5)cc3)OCCO4)c2)s1` [Compound 187, (S)—N-((4-(2-aminothiazol-5-yl)thiophen-2-yl)methyl)-7-((4-(4-fluorophenoxy)benzoyl)glycyl)-1,4-dioxa-7-azaspiro[4.4]nonane-8-carboxamide], the IC50 is above 1000 nM. For `N=C(N)c1csc(CNC(=O)[C@@H]2CC3(CN2C(=O)CNC(=O)c2ccc(-c4cc(F)ccc4F)cc2)OCCO3)c1` [Compound 188, (S)—N-((4-carbamimidoylthiophen-2-yl)methyl)-7-((2′,5′-difluoro-[1,1′-biphenyl]-4-carbonyl)glycyl)-1,4-dioxa-7-azaspiro[4.4]nonane-8-carboxamide], the IC50 was below 100 nM. For the compound `N=C(N)c1csc(CNC(=O)[C@@H]2CC3(CN2C(=O)CNC(=O)c2ccc(-c4cc(F)cc(F)c4)cc2)OCCO3)c1` [Compound 189, (S)—N-((4-carbamimidoylthiophen-2-yl)methyl)-7-((3′,5′-difluoro-[1,1′-biphenyl]-4-carbonyl)glycyl)-1,4-dioxa-7-azaspiro[4.4]nonane-8-carboxamide], the half-inhibitory concentration (IC50) is below 100 nM. For the compound `Cc1ccc2c(c1)C(F)(F)c1ccc(C(=O)NCC(=O)N3CC4(C[C@H]3C(=O)N[C@H](C)c3cc(C(=N)N)cs3)OCCO4)cc1-2` [Compound 190, (S)—N—((R)-1-(4-carbamimidoylthiophen-2-yl)ethyl)-7-((9,9-difluoro-7-methyl-9H-fluorene-3-carbonyl)glycyl)-1,4-dioxa-7-azaspiro[4.4]nonane-8-carboxamide], the IC50 was below 100 nM. For `COc1ccc2c(c1)C(F)(F)c1ccc(C(=O)NCC(=O)N3CC4(C[C@H]3C(=O)N[C@H](C)c3cc(C(=N)N)cs3)OCCO4)cc1-2` [Compound 191, (S)—N—((R)-1-(4-carbamimidoylthiophen-2-yl)ethyl)-7-((9,9-difluoro-7-methoxy-9H-fluorene-3-carbonyl)glycyl)-1,4-dioxa-7-azaspiro[4.4]nonane-8-carboxamide], the IC50 was below 100 nM. Consider `C[C@@H](NC(=O)[C@@H]1CC2(CN1C(=O)CNC(=O)c1ccc3c(c1)-c1ccc(Cl)cc1C3(F)F)OCCO2)c1cc(C(=N)N)cs1` [Compound 192, (8S)—N-[(1R)-1-(4-carbamimidoylthiophen-2-yl)ethyl]-7-{2-[(7-chloro-9,9-difluorofluoren-3-yl)formamido]acetyl}-1,4-dioxa-7-azaspiro[4.4]nonane-8-carboxamide], for which the IC50 is below 100 nM. The result for `C[C@@H](NC(=O)[C@@H]1CC2(CN1C(=O)CNC(=O)c1ccc3c(c1)-c1ccc(F)cc1C3(F)F)OCCO2)c1cc(C(=N)N)cs1` [Compound 193, (8S)—N-[(1R)-1-(4-carbamimidoylthiophen-2-yl)ethyl]-7-{2-[(7,9,9-trifluorofluoren-3-yl)formamido]acetyl}-1,4-dioxa-7-azaspiro[4.4]nonane-8-carboxamide] reads below 100 nM. Consider `C[C@@H](NC(=O)[C@@H]1C[C@](F)(COCCCCCCCCCC(=O)O)CN1C(=O)CNC(=O)c1ccc2c(c1)-c1ccccc1C2(F)F)c1cc(C(=N)N)cs1` [Compound 194, 10-(((3R,5S)-5-(((R)-1-(4-carbamimidoylthiophen-2-yl)ethyl)carbamoyl)-1-((9,9-difluoro-9H-fluorene-3-carbonyl)glycyl)-3-fluoropyrrolidin-3-yl)methoxy)decanoic acid], for which the IC50 is below 100 nM.

Values taken from patent publication US20250346585A1 (Alexion Pharmaceuticals, Inc., priority 2022, published 2025).
